Measured values published in patent US9102636B2, “Analgesic compounds, compositions, and uses thereof” (Galleon Pharmaceuticals, Inc., priority 2010, dated 2015).
Values joined by “and” are separate entries in the source; they are usually repeats but may differ in a detail not shown here. Equal entries are not always repeated. Structures can show the parent of a compound that is named as a salt. One block for each compound: values may come before it.

What was measured:
[1] = test system: Carrageenan-induced edema; assay: Carrageenan-induced edema (paw volume); type: in vivo, rat; conditions: indomethacin 30 mg/kg p.o. prior to carrageenan; for Paw volume: individual animals
Protocol: (§1) The effect of Compound 2 in the rat carrageenan model of acute inflammatory pain was evaluated. The intraplantar carrageenan model of acute inflammatory pain in the rat results in behaviors similar to that observed in patients and has been widely used to assess novel pharmacological treatments (Whiteside et al., 2005, J. Pharmacol. Exp. Ther. 314:1234-1240). The objective of this study was to evaluate the ability of Compound 2 to reverse or prevent development of thermal hyperalgesia and edema in the rat carrageenan model of acute inflammatory pain. The positive control was indomethacin (Sigma, St. Louis), and the negative control was vehicle (0.5% methyl cellulose). […] The Hargreaves apparatus was obtained from Ugo Basile, Italy, and the lamba-carrageenan was obtained from Sigma, St. Louis. For this assay, paw withdrawal latency to a thermal stimulus was assessed using a radiant heat source (Ugo Basile, Italy) aimed at the plantar surface of the left hind paw (Hargreaves test). […] Paw volume was measured by displacement of water and assuming a tissue density equal to that of water. Baseline latencies were taken prior to carrageenan administration and re-assessed 4 h later. […] Indomethacin (positive control, 30 mg/kg p.o.) was administered prior to carrageenan and behavior assessed 4 hrs post-carrageenan. […] After induction of anesthesia, the injection site was prepared in a sterile manner and 50 μl of a 2% Jamba-carrageenan was injected. After injection, animals were weighed and allowed to recover before being returned to their home cages. Statistical significance was determined on untransformed data using a two-way analysis of variance (Graphpad Prism, NC). Significant main effects were analyzed further by subsequent Bonferronni post-hoc test. The level of significance was set at p<0.05. Data are shown as mean±S.E.M. (with an asterisk to denote significance as compared to vehicle treated controls).

[2] = test system: Carrageenan-induced thermal hyperalgesia; assay: Carrageenan-induced thermal hyperalgesia (Hargreaves); type: in vivo, rat; conditions: indomethacin 30 mg/kg p.o. prior to carrageenan; for Paw withdrawal latency: cut-off 40 s, individual animals
Protocol: as §1, with “later. Compound 2 or vehicle was administered (10 and 30 mg/kg, p.o.) 3 hrs after carrageenan (curative) and behavior assessed 1 hr later.” for “later.”

melting point: 109 to 111 °C
SMILES: O=C(O)[C@@H]1CSC(Nc2ccc(F)cc2O)=N1 (as salt: HCl) [Compound 6, (R)-2-(4-Fluoro-2-hydroxyphenylamino)-thiazoline-4-carboxylic acid]

melting point: 205 to 207 °C
SMILES: Cc1c(Cl)cc(NC2=N[C@H](C(=O)O)CS2)c(O)c1Cl (as salt: HCl) [Compound 8, (R)-2-(3,5-Dichloro-2-hydroxy-4-methylphenylamino)-thiazoline-4-carboxylic acid]

melting point: 118 to 120 °C
SMILES: COC(=O)c1ccc(NC2=N[C@H](C(=O)O)CS2)c(O)c1 (as salt: HCl) [Compound 12, (R)-2-(2-Hydroxy-4-methoxycarbonylphenylamino)-thiazoline-4-carboxylic acid]

SMILES: COc1ccc2c(c1)c(CC(=O)O)c(C)n2C(=O)c1ccc(Cl)cc1 [Indo]
Paw volume ([1]; 4 hr post-drug): 2.5 mL and 2.4 mL and 2.3 mL (2×) and 2.2 mL and 1.8 mL | Paw volume ([1]; Pre-Cg): 1.7 mL (2×) and 1.5 mL (2×) and 1.8 mL and 1.4 mL | Paw withdrawal latency ([2]; 4 hrs post-carrageenan (second line)): 17 s and 35 s and 26 s and 28 s and 40 s (2×) | Paw withdrawal latency ([2]; baseline prior to carrageenan (first line)): 20 s and 40 s and 17 s and 32 s and 23 s and 24 s

SMILES: COc1ccc2c(c1)c(CC(=O)O)c(C)n2C(=O)c1ccc(Cl)cc1 [indomethacin, reference compound]
carrageenan-induced edema, positive control preemptive ([1]; rat, 4 hrs post-carrageenan): statistically significant prevention | carrageenan-induced thermal hyperalgesia, positive control preemptive ([2]; rat, 4 hrs post-carrageenan): statistically significant prevention
